Here are results for four compounds from ChEMBL document CHEMBL4418485, “Klf5 modulators” (2015).

Calls of active or inactive are those of the source. No cut-off for these calls is given here.

Series [1] has as its system DLD-1. Description: Reduction in KLF5 protein expression in human DLD1 cells at 10 uM by gel electrophoresis and autoradiography. Format: functional, cell-based.
For a further series, the system named is HCT-116. Description: Reduction in KLF5 protein expression in human HCT116 cells at 10 uM by gel electrophoresis and autoradiography. Format: functional, cell-based.
For a further series, the system named is HT-29. Kind of series: Reduction in KLF5 protein expression in human HT-29 cells at 10 uM by gel electrophoresis and autoradiography. The class given is functional, cell-based.
In another series the test system is SW-620. Kind of series: Reduction in KLF5 protein expression in human SW620 cells at 10 uM by gel electrophoresis and autoradiography. The class given is functional, cell-based.
Series [2] deals with DLD-1. Kind of series: Cell cycle arrest in human DLD1 cells assessed as accumulation at subG1 phase accumulation after 24 hrs (reference value: 0.81 +/- 0.13%). The class given is functional.
In series [3] the test system is DLD-1. Kind of series: Cell cycle arrest in human DLD1 cells assessed as accumulation at subG1 phase accumulation after 48 hrs (reference value: 1.27 +/- 0.15%). The class given is functional.
Series [4] deals with DLD-1. Kind of series: Cell cycle arrest in human DLD1 cells assessed as accumulation at G1 phase accumulation after 24 hrs (reference value: 34.78 +/- 2.58%). Format: functional.
The test system of series [5] is DLD-1. Kind of series: Cell cycle arrest in human DLD1 cells assessed as accumulation at G1 phase accumulation after 48 hrs (reference value: 32.63 +/- 3.18%). The class given is functional.
The subject of series [6] is DLD-1. Kind of series: Cell cycle arrest in human DLD1 cells assessed as accumulation at S phase accumulation after 24 hrs (reference value: 18.05 +/- 1.13%). Format: functional.
Series [7] relates to DLD-1. Description: Cell cycle arrest in human DLD1 cells assessed as accumulation at S phase accumulation after 48 hrs (reference value: 8.06 +/- 1.35%). The class given is functional.
Series [8] has as its system DLD-1. Kind of series: Cell cycle arrest in human DLD1 cells assessed as accumulation at G2/M phase accumulation after 24 hrs (reference value: 46.58 +/- 3.73%). Format: functional.
Series [9] relates to DLD-1. Kind of series: Cell cycle arrest in human DLD1 cells assessed as accumulation at G2/M phase accumulation after 48 hrs (reference value: 58.17 +/- 4.4%). Format: functional.
Another series has as its system IEC-6. Kind of series: Growth inhibition of rat IEC-6 cells relative to control. Format: cell-based.

For `CN(C(=O)CNC(=O)/C=C/c1cccc(Cl)c1)C1CCS(=O)(=O)CC1`, the outcome in the series on DLD-1 [1], with HCT-116, in the series with HT-29 and in the series on SW-620 was Active. Also, the Activity with DLD-1 [2] came out at 7.82%; in the series with DLD-1 [3], 9.63%; in the series with DLD-1 [4], 44.15%; in the series with DLD-1 [5], 31.58%; with DLD-1 [6] it was 18.47%; in the series on DLD-1 [7] it was 19.74%. For the same compound, the results for the Activity with DLD-1 [8] and in the series on DLD-1 [9] were 29.81% and 39.36%, respectively. In addition, in the series with IEC-6, the “growth inhibition (GI)” value is under 50%.

With `CN(C(=O)CNC(=O)/C=C/c1cccc([N+](=O)[O-])c1)C1CCS(=O)(=O)C1` (stereo not given), the result in the series with DLD-1 [1], in the series with HCT-116, with HT-29 and in the series with SW-620 was inactive.

As for `CN(C(=O)COC(=O)/C=C/c1cccc([N+](=O)[O-])c1)C1CCS(=O)(=O)C1` (stereo not given), the outcome in the series with DLD-1 [1], with HCT-116, with HT-29 and in the series on SW-620 was inactive.

In the case of `CN(C(=O)CNC(=O)/C=C/c1cccc(Cl)c1)C1CCS(=O)(=O)C1` (stereo not given), the result in the series with DLD-1 [1], in the series on HCT-116, in the series on HT-29 and with SW-620 was inactive.
